Activity and inhibition data for four molecules are collected here from ChEMBL document CHEMBL1148938, “Quinolone alkaloids with nitric oxide production inhibitory activity from Orixa japonica” (2004).

Active and inactive are the calls of the source. The rule behind the calls is not given here.

The test system of assay [1] is RAW264.7. Kind of assay: Inhibition of LPS/IFN-gamma-induced NO production in mouse RAW264.7 cells at 30 uM after 18 hrs. Format: functional, cell-based.
In assay [2] the test system is RAW264.7. Put plainly: Inhibition of LPS/IFN-gamma-induced NO production in mouse RAW264.7 cells at 10 uM after 18 hrs. Format: functional. The conditions noted are these: RAW264.7, 18 h.
In assay [3] the test system is RAW264.7. Put plainly: Inhibition of LPS/IFN-gamma-induced NO production in mouse RAW264.7 cells at 50 uM after 18 hrs. Format: functional. The conditions noted are these: RAW264.7, 18 h.

Take `COc1nc2c3c(ccc2c(OC)c1CC(=O)C(C)C)OCO3`: in the assay with RAW264.7 [1], the outcome was inactive. With `COc1nc2c3c(ccc2c(OC)c1C[C@H]1OC1(C)C)OCO3`, the result in the assay with RAW264.7 [1] was inactive. Same read-out and setting: with `COc1c2ccoc2nc2c3c(ccc12)OCO3` the entry was “inactive”. On to `COc1c(CC(=O)C(C)C)c(=O)n(C)c2c(OC)cccc12` [ORIXALONE A], for which the inhibition at 10 µM with RAW264.7 [2] turned out to be 47.3%. Besides, in the assay with RAW264.7 [3], the inhibition at 50 µM came to 54.8%.
